Test results taken from publication PMC12030062, “From In Vitro Cytotoxicity to In Vivo Zebrafish Assays: A Study on 3,3-Dichloro β-, γ- and δ-Lactams and Their Biological Activity Profiles” (Pharmaceuticals, 2025).

What was measured:
[1] = test system: human erythrocytes; assay: Hemolysis assay with human erythrocytes; type: cell-based; conditions: from 10 to 80 µg/mL
Method: (§1) In this context, non-hemolytic compounds are essential, as they enhance the safety and efficacy of lactam-based drugs by reducing adverse effects while maintaining their antitumor activity. In accordance with EU regulations (ISO 10993-4), the assessment of the biological compatibility of new compounds that may come into contact with the blood necessitates in vitro hemocompatibility evaluations. In this study, the extent of hemolysis induced by the different compounds was assessed by incubating them with an erythrocyte suspension. The hemolytic response of compounds 1–10 was evaluated at two concentrations (10 and 80 µg/mL), the results of which are presented in Figure 3.
(§2) • In Vitro Assay Using Human Erythrocytes • - Acquisition and Extraction of the Erythrocytes Human blood samples were obtained from the Banc de Sang i Teixits de Barcelona (Spain) from the Catalan Department of Health. Blood was deposited in tubes with the anticoagulant EDTA-K3. Blood samples were centrifuged at 3000 rpm and 4 °C for 10 min (Megafuge 2.0 R. Heraeus Instruments, Hanau, Germany) to induce sedimentation. Plasma was extracted with a Pasteur pipette. Next, the residual pellet was washed with PBS at pH 7.4. This procedure was repeated three times to remove residual leukocytes and platelets and to concentrate the erythrocytes. Following the last wash, the erythrocyte suspension was diluted (1:1) in PBS at pH 7.4 to obtain a suitable erythrocyte suspension (cell density of 8 × 10^9 cell/mL). • - Hemolysis Assay The hemolysis assay determined the capability of different compounds to induce the hemolysis of the erythrocyte membrane. Stock solutions of each compound at 1 mg/mL in PBS at pH 7.4 were prepared. Different volumes (10–80 μL) were placed in polystyrene tubes, and an aliquot of 25 µL of the erythrocyte suspensions was added to each tube. The final volume was 1 mL. The tubes were incubated at room temperature under rotatory conditions. Then, the tubes were centrifuged at 10,000 rpm for 5 min. The supernatants’ absorbance at 540 nm (Shimadzu UV-160A, Shimadzu, Duisburg, Germany) was compared with that of the positive (erythrocytes hemolyzed with distilled water) and negative (erythrocyte suspension in PBS at pH 7.4) controls. The degree of hemolysis was determined using the following equation: Hemolysis (%) = 100 × (Abs − Abs0)/(Abs100 − Abs0) where Abs, Abs0, and Abs100 are the absorbance of the test samples, of the suspension treated with isotonic phosphate–buffered saline (PBS), and of the suspension of complete hemolysis treated with distilled water, respectively. • In Vitro Essay Using Cell Cultures The murine Swiss albino fibroblasts (3T3) and the squamous cell carcinoma (A431) cell lines were obtained from Celltec UB. Cells were grown in DMEM medium (4.5 g/L glucose) supplemented with 10% (v/v) FBS, 2 mM L-glutamine, 100 U/mL penicillin, and 100 µg/mL streptomycin at 37 °C with 5% CO2. Cells were routinely cultured in 75 cm^2 culture flasks and were trypsinized using trypsin–EDTA when the cells reached approximately 80% confluence. The trypan blue assay, which allows for the direct identification and enumeration of the live (unstained) and dead (blue) cells in the cell population, was used to evaluate the viability of the cells in the cell suspension obtained. • - Cell Viability Assays Cell lines of 3T3 (1 × 10^5 cells/mL) and A431 (5 × 10^4 cells/mL) were grown at defined densities in the 60 central wells of a 96-well plate. The cells were incubated for 24 h in 5% CO2 at 37 °C. Then, the spent medium was removed, and the cells were incubated for 24 h, with their corresponding compound solutions (1 mg/mL) previously diluted in a minimum amount of DMF (dimethylformamide) and then in DMEM medium supplemented with 5% FBS (100 µL) at the required concentration range (80 or 250 µg/mL). […]

[2] = Hemolysis assay with human erythrocytes; type: cell-based; conditions: human, washed human erythrocyte suspension, pH 7.4; 10 µg/mL; read-out: degree of hemolysis
Method: as §1, §2

[3] = test system: Zebrafish embryos; type: in vivo; conditions: 74 hpf after 2-h washout; all tested concentrations up to 3.4 µg/mL
Method: Additionally, at 74 hpf, following a 2-h washout period, the response to a tactile stimulus or touch-evoked response, also known as a TER, was evaluated in embryos. This assay requires the embryos to have proper neuromuscular function. […] Further studies might be needed to elucidate the specific mechanisms by which the compound affects neurodevelopment or motor function and to determine whether these effects translate to other organisms. These findings are consistent with the broader body of research on anticancer agents, highlighting the importance of neurotoxicity evaluation in drug development and reinforcing the need for ongoing research to address these concerns. The videos and figures related to this part of the work are available in the Supplementary Materials.
• Zebrafish egg production and exposure The study was conducted in accordance with the local legislation and institutional requirements, according to the Generalitat de Catalunya Decree 53/2013, which regulates the use of animals for experimental and other scientific purposes. […] At the end of the test, dysmorphogenesis was evaluated in the live embryos only. The average lethality and dysmorphogenesis were calculated for 10 embryos per concentration, followed by averaging the results of at least three independent experiments. […]

SMILES: CC(C)(C)N1C(=O)C(Cl)(Cl)C1c1ccccc1 (stereo not drawn) [Compound 1]
- change of hemolytic response as concentration increased [1]: remained stable
- hemolysis at 10 µg/mL [2]: 0.01%
- touch-evoked response (TER), swimming distance [3]: significant neurodevelopmental adverse effect
